# ChEMBL document CHEMBL1132130, “Synthesis of heterocyclic enol ethers and their use as group 2 metabotropic glutamate receptor antagonists” (Bioorg Med Chem Lett, 1999)
# pIC50: −log10 of the molar value. Calls of active or inactive are those of the source. The rule behind the calls is not given here.
# Assays:
# [1] = target: T1, Metabotropic glutamate receptor 2 (Rattus norvegicus, UniProt P31421); experiment: Inhibition of 1S, 3R-ACPD (10 uM)-stimulated GTP gamma 35S binding on rat mGluR2 transfected cell membranes from CHO cells
# T1 sequence (P31421 whole entry): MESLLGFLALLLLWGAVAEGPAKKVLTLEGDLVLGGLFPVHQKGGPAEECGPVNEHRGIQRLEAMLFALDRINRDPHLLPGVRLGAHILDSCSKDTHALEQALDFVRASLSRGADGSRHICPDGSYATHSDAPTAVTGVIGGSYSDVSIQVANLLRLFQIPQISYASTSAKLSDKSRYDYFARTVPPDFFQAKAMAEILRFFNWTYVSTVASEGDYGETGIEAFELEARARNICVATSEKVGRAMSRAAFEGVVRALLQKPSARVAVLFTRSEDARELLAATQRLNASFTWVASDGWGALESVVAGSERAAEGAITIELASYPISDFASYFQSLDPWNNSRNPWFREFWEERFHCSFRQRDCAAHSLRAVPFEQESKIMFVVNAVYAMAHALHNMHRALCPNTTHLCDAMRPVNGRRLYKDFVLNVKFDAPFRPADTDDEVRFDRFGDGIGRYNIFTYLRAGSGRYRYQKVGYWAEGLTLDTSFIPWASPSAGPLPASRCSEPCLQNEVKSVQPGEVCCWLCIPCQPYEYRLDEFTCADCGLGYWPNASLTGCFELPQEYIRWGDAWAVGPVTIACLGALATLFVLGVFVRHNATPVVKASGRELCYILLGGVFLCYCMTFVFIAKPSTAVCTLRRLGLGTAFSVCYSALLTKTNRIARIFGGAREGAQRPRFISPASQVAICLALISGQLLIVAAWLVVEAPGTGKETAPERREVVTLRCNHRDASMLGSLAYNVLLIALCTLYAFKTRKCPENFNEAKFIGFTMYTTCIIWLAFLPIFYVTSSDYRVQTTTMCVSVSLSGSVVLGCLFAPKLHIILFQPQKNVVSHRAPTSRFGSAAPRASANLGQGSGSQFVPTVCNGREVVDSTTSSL
# [2] = target: Glutamate receptor ionotropic, kainate (Rattus norvegicus) (UniProt P22756+Q01812+P42260+P42264+Q63273); experiment: Compound was tested for inhibition of binding of [3H]kainate to Ionotropic glutamate receptor kainate in rat brain membranes up to 100 uM; IA means inactive; type: cell membranes
# [3] = target: Glutamate receptor ionotropic, AMPA (Rattus norvegicus) (UniProt P19491+P19492+P19493+P19490); experiment: Compound was tested for inhibition of binding of [3H]-Ro- 48-8587 to Ionotropic glutamate receptor AMPA in rat brain membranes up to 100 uM; IA means inactive; type: cell membranes
# [4] = target: Glutamate receptor ionotropic, NMDA 2C (Rattus norvegicus) (UniProt Q00961); experiment: Compound was tested for inhibition of binding of [3H]-MK 801 to NMDA receptor in rat brain membranes up to 100 uM; IA means inactive; type: cell membranes
# Chain of Glutamate receptor ionotropic, NMDA 2C (Rattus norvegicus) (Q00961 20-1237 limits assumed): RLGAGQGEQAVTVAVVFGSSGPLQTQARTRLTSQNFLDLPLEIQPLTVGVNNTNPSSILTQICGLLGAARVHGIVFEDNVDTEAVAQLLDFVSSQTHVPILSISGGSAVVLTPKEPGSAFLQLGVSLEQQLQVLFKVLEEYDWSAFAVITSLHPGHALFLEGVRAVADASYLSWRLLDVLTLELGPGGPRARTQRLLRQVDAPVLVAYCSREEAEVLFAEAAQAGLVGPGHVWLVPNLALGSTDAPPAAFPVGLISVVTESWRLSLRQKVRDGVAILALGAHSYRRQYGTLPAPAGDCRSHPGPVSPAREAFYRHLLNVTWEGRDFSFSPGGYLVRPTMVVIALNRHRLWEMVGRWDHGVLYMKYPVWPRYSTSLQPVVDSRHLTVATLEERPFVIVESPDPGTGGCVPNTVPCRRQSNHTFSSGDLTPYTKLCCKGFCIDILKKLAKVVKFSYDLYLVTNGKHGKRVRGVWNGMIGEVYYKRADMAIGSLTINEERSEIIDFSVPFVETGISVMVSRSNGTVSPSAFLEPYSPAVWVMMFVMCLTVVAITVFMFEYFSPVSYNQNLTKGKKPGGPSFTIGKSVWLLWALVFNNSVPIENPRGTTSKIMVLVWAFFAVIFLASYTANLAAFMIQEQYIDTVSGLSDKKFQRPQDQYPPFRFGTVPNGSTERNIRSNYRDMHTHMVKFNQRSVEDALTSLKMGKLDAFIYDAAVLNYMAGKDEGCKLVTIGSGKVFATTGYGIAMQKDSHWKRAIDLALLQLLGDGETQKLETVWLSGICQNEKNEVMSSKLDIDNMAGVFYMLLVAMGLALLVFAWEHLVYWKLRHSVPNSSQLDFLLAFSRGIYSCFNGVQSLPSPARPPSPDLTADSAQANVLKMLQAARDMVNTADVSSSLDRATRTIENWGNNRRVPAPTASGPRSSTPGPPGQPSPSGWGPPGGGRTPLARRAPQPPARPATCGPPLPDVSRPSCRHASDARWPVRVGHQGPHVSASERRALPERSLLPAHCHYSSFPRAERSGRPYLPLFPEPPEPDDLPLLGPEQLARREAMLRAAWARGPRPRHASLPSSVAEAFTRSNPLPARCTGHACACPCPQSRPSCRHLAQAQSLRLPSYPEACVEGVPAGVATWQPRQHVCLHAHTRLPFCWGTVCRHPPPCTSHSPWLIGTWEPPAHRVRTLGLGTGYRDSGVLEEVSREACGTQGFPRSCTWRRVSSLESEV
# [5] = target: T1, Metabotropic glutamate receptor 2; experiment: Inhibition of [3H]-DCG IV binding on rat mGluR2 transfected cell membranes from CHO cells
# [6] = target: Metabotropic glutamate receptor 4 (Rattus norvegicus) (UniProt P31423); experiment: Compound was tested for agonistic or antagonistic activity on rat mGluR4 using the GTP-gamma 35S binding model up to 100 uM; IA means devoid of activity
# Chain of Metabotropic glutamate receptor 4 (Rattus norvegicus) (P31423 whole entry): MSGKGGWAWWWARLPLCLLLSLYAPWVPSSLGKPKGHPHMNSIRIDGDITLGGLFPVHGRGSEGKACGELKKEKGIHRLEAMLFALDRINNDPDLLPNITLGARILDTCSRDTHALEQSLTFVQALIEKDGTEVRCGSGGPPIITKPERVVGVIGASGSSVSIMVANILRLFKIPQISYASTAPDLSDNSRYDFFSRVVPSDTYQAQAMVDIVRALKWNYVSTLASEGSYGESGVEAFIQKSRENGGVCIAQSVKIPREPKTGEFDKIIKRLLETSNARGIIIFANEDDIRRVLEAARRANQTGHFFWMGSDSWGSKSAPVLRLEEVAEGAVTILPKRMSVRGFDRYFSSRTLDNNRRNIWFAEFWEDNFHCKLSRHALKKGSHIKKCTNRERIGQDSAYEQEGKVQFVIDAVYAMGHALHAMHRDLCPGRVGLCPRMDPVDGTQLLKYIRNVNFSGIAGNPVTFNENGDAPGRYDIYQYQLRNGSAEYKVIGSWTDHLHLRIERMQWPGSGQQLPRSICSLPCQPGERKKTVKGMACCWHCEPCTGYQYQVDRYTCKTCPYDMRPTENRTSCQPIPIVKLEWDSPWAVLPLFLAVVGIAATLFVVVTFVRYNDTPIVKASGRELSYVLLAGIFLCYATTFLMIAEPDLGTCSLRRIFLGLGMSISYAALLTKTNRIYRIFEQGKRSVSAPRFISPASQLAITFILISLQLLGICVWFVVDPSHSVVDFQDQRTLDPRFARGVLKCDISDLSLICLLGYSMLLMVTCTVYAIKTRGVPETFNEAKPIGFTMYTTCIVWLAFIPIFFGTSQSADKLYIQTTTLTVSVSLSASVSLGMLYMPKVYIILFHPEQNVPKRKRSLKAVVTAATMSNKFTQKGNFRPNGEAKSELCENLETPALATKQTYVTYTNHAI
# [7] = target: Metabotropic glutamate receptor 5 (Rattus norvegicus) (UniProt P31424); experiment: Compound was tested for agonistic or antagonistic activity on rat mGluR5 using intracellular Ca 2+ measurement up to 100 uM; IA means devoid of activity; type: functional, cell-based
# [8] = target: T1, Metabotropic glutamate receptor 2; experiment: Inhibition of 10 uM 1S, 3R-ACPD stimulated GTP gamma 35S binding to rat mGluR2 expressed in CHO cells; type: cell-based
# [9] = target: Metabotropic glutamate receptor 1 (Rattus norvegicus) (UniProt P23385); experiment: Compound was tested for agonistic or antagonistic activity on rat mGluR1 using intracellular Ca 2+ measurement up to 100 uM; IA means devoid of activity; type: functional, cell-based
# Chain of Metabotropic glutamate receptor 1 (Rattus norvegicus) (P23385 19-1199 limits assumed): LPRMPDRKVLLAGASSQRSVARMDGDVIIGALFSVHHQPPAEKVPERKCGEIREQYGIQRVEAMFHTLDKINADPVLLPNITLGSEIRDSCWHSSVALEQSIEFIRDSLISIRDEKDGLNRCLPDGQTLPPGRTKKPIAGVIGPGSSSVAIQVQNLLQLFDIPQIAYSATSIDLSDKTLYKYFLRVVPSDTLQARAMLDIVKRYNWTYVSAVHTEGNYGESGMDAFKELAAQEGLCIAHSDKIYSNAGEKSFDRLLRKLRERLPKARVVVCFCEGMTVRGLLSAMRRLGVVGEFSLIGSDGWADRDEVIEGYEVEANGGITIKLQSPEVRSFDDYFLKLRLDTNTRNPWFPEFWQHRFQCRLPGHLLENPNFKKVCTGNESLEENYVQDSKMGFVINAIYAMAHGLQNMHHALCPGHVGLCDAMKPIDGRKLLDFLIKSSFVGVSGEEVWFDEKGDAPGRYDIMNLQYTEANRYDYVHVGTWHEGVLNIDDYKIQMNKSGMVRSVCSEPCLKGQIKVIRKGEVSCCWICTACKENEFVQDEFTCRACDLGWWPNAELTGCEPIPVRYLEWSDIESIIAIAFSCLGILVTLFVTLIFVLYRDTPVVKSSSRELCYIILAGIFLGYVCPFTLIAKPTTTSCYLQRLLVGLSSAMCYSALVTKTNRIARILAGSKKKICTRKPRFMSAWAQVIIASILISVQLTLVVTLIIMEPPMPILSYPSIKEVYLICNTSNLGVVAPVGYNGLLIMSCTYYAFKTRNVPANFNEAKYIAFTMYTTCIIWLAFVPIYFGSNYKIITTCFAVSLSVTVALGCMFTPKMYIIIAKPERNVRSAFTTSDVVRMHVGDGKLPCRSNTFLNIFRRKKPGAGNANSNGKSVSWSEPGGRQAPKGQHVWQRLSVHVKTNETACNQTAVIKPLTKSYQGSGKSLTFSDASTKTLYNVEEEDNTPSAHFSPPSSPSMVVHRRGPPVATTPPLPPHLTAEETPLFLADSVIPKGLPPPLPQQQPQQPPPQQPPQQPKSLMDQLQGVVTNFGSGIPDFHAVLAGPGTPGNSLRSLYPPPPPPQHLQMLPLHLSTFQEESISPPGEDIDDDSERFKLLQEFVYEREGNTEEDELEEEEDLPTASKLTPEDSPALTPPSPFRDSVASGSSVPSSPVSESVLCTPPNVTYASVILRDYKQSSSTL
SMILES,pIC50 [1],Activity [2],Activity [3],Activity [4],pIC50 [5],Activity [6],Activity [7],pIC50 [8],Activity [9]
COc1ccc(/C(=C/n2cncn2)OC(C)C)c(OC)c1,< 4.00,–,–,–,–,–,–,–,–
Clc1cccc(Cl)c1/C(=C/n1cncn1)OC1CCCCCC1,–,inactive,inactive,inactive,6.30,inactive,inactive,6.96,inactive
